Reference: publication PMC11407620, “Repurposing auranofin and meclofenamic acid as energy-metabolism inhibitors and anti-cancer drugs” (PLOS ONE, 2024)
Read-outs that look alike come from different tables or passages of the source.

How the values were obtained:
[1] = tested on: H9C2 mouse cardiomyocytes; experiment: Cell proliferation, 24 h drug exposure (non cancer cells); type: cell-based; conditions: read-out: IC50 for proliferation cell rate
Description: (§1) All metastatic (breast MDA-MB231, MDA-MB468, cervix HeLa, prostate PC3, colorectal HCT116, COLO205, glioblastoma U373), low-metastatic (breast MCF-7) cancer and non-cancer (fibroblast 3T3, cardiomyocytes H9C2) cell lines (American Type Culture Collection, Rockville, MD, USA) used in this study were cultured in Petri dishes in 20 mL of Dulbecco’s Modified Eagle’s Medium (DMEM, Sigma, MO, USA) supplemented with 10% fetal bovine serum (Biowest, Mexico) and 10,000 U penicillin/streptomycin (Sigma-Aldrich, MO, USA). […] For growth and maintenance, cells were incubated in 5% CO2/95% air at 37°C and kept until 80–90% of confluence was reached. Then, cells were harvested, washed by centrifugation and resuspended in Krebs-Ringer buffer (KR, 125 mM NaCl, 5 mM KCl, 25 mM Hepes, 1 mM MgCl2, 1 mM KH2PO4, 1.4 mM CaCl2, pH 7.4) for further use. For experimentation, cancer cells (3–5 x 10^6 cells) were cultured in DMEM (with 25 mM glucose) for 24 h in the absence of drugs. Afterwards, old-medium was replaced with fresh DMEM medium (with 25 mM glucose) in the absence (control, non-treated cells) or in the presence of logarithmic concentrations of Aur and MA for 24 h more, under the same culture conditions described above. Viability of cultured cells was determined by the trypan blue exclusion assay. The protein concentration was determined by the Lowry method.
(§2) For cell proliferation in the presence of drugs, cancer cells (20 x 10^3 cells/well) were grown in 96-well plates containing DMEM (Sigma-Aldrich) plus 10% bovine fetal serum for 24 h. Afterwards, Aur or MA (0.01, 0.1, 10 and 100 μM) were added to the cell cultures and incubated for additional 24 h. The effect of these drugs on cell proliferation was determined in 96-well plates by the MTT (3-[4,5-dimethyl-thiazol-2-yl]-2,5-diphenyltetrazolium bromide) assay. The viability of cancer cells was > 95% after treatment with drugs.

[2] = tested on: 3T3 mouse fibroblasts; experiment: as above; type: cell-based; conditions: 3T3 mouse fibroblasts (non cancer), read-out: IC50 for proliferation cell rate
Description: as §1, §2

[3] = tested on: HeLa cells; experiment: ROS production and total content (DHE); type: cell-based, human; conditions: Aur 1.7 μM, 24 h
Description: Fig 3 Radical oxygen species in Aur-treated cancer cells. (A) ROS production and (B) ROS total content in DHE loaded-metastatic cancer cells. The 100% fluorescence corresponds to 1.9 ± 0.26 (n = 3); 1.2 ± 0.09 (n = 3); and 0.64 (n = 2) fluorescence arbitrary units for HeLa, MDA-MB-231 and U373 cells, respectively. The Aur concentration added was 1.7, 0.8 and 0.6 μM for HeLa, MDA-MB-231 and U373 cells, respectively. The contents of ROS shown were determined at the 120 min end-point, after adding 25 μM DHE. *p < 0.05 vs. Control (Non- treated cells).

[4] = tested on: MDA-MB-231 cells; experiment: Glycolysis flux (lactate production) in intact cells; type: cell-based, human; conditions: +Aur 0.8 μM, 24 h
Description: (§3) For glycolysis flux, cells (3 mg protein/mL) were incubated in KR buffer. Glycolysis was started by adding 5 mM external glucose (Sigma-Aldrich, MO, USA), and cellular samples were withdrawn after 0 and 10 min of incubation at 37°C under smooth orbital shaking. At the indicated times, the cells were rapidly mixed with 3% (w/v) ice-cold perchloric acid and centrifuged. The supernatants were neutralized with 1N KOH/100mM Tris. To rule out lactate production by glutaminolysis, cells were also incubated with 10 mM 2-deoxyglucose (Sigma-Aldrich, MO, USA). Lactate was determined by a standard method with lactate dehydrogenase (Roche, Mannheim, Germany) following the NADH formation at 340 nm.

[5] = tested on: HeLa cells; experiment: as above; type: cell-based, human
Description: as §3

[6] = tested on: HeLa cells; experiment: Mitophagy assay (MTG/LTR co-localization); type: cell-based, human; conditions: Aur 1.7 μM, 24 h
Description: The selective removal of damaged/inhibited mitochondria by autophagosomes and lysosomes (i.e., mitophagy) was detected by using an EVOS epifluorescence cell imaging microscope (ThermoFisher, Waltham MA, USA). HeLa cells (5 × 10^4 cells/mL) were cultured in 2 mL DMEM in glass bottom culture dishes and exposed to Aur for 24 h. HeLa cells were incubated with 400 nM Hoechst (Bis-Benzimide H 33342 trihydrochloride), 500 nM MitoTracker-Green FM and 500 nM LysoTracker-Red for 30 min at 37°C for nuclei, mitochondria and lysosome detection, respectively. Afterwards, cells were washed, resuspended with DMEM medium without red phenol and placed in the EVOS microscope for their analysis.
To establish which cell processes were associated to Aur-dependent OxPhos inhibition, mitochondrial digestion (mitophagy) and ROS production were assayed in HeLa cells (Fig 2). Mitophagy is the selective removal of dysfunctional or damaged mitochondria by autophagosomes, which is triggered by mitochondrial inner membrane depolarization and the generation of reactive oxygen species (ROS). Mitophagy was assessed by the number of lysosomes and their co-localization with mitochondria in LTR/MTG-loaded cells by epifluorescence microscopy. […] In addition, dead cells were previously removed for the dye loading procedure, thus discarding unspecific drug effects on mitophagy. […]

[7] = design: method as in doi:10.1016/j.ccr.2017.02.015, PMID 36770718; conditions: cited from earlier work
[8] = tested on: GAPDH; design: method as in PMID 36560881; conditions: OVCAR-8 cells; Aur 2.5 μM/ 8 h; cited from earlier work
[9] = tested on: Colorectal COLO205 cells; experiment: Cell proliferation, 24 h drug exposure; type: cell-based, human
Description: as §1, §2

[10] = tested on: Breast MDA-MB-468 cells; experiment: Cell proliferation, 24 h drug exposure; type: cell-based, human
Description: as §1, §2

| Structure (SMILES) | IC50 [1] [µM] | IC50 ([2]; Fibroblast) [µM] | ROS production rate [3] | total ROS levels after 2 h measurement [3] | Glycolysis flux [4] | Glycolysis flux ([5]; +Aur 1.7 μM, 24 h) | glycolytic flux inhibition ([5]; Aur alone (Table 2)) [%] | mitophagy (MTG mitochondria/LTR lysosomes co-localization) [6] | stability in aqueous media [7] | lower GAPDH activity vs. non-treated cells [8] [%] | IC50 ([9]; Colorectal COLO205, 24 h, read-out: IC50 for proliferation cell rate) [µM] | TI ratio (3T3/ cancer cells) ([9]; IC50 3T3 / IC50 COLO 205) | TI ratio (H9C2/cancer cells) ([9]; IC50 H9C2 / IC50 COLO 205) | IC50 ([10]; Breast MDA-MB-468, 24 h, read-out: IC50 for proliferation cell rate) [µM] | TI ratio (3T3/ cancer cells) ([10]; IC50 3T3 / IC50 MDA-MB-468) | TI ratio (H9C2/cancer cells) ([10]; IC50 H9C2 / IC50 MDA-MB-468) | IC50 [2] [µM] |
| --- | --- | --- | --- | --- | --- | --- | --- | --- | --- | --- | --- | --- | --- | --- | --- | --- | --- |
| Cc1ccc(Cl)c(Nc2ccccc2C(=O)O)c1Cl [MA, Meclofenamic acid] | > 100 | > 100 |  |  |  |  |  |  |  |  |  |  |  |  |  |  |  |
| CC(=O)OC[C@H]1O[C@@H]([S-])[C@H](OC(C)=O)[C@@H](OC(C)=O)[C@@H]1OC(C)=O.CCP(CC)CC.[Au+] [Aur, [1-(thio-κS)-β-D-glucopyranose-2,3,4,6-tetraacetyl] (triethylphosphine)-gold] | 78 ± 15 |  | did not bring about increments | did not bring about increments | 3 ± 2 (3) nmol lactate min^-1 mg protein^-1 | 4 ± 3 (3) nmol lactate min^-1 mg protein^-1 | 75 | significant enhancement | unstable | 40 | 6 ± 2 | 7 | 13 | 2 ± 1 | 21 | 39 | 42 ± 17 |
